This data set deals with human PKK mRNA. Description: Antisense inhibition of human PKK mRNA in HepaRG cells, 1,000 nM, MOE/deoxy/cEt oligonucleotides (Example 3). The data set is classed as cell-based. The conditions noted are these: HepaRG cells, electroporation with 1,000 nM antisense oligonucleotide, PKK mRNA by RT-PCR (RTS3454), relative to untreated control cells. Put shortly: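 Readout is percent PKK mRNA reduction against untreated controls, by real-time PCR (RTS3454) adjusted for total RNA via RIBOGREEN. Oligonucleotides, phosphorothioate gapmers of 16 nucleosides with cEt, MOE and deoxy sugars, were delivered at 1,000 nM by electroporation to 20,000 HepaRG cells/well for roughly 24 h.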

Where [1] appears, read: Table 20, approximately 24 hours.
The mark [2] stands for this setting: Table 22 experiment, approx. 24 hours.

Strand notation (5' to 3'): a small letter for the sugar, then the base; units joined by * are phosphorothioate-linked, units joined directly phosphodiester-linked; [ ] holds rarer units or linkages, { } end groups; capitals alone tell only the bases. e = 2'-O-(2-methoxyethyl) (MOE); k = constrained ethyl (cEt); [5mC] = 5-methylcytosine; d = 2'-deoxy (DNA)

Usually % inhibition stands for the relative decrease from the control value, in per cent. A lower % inhibition goes with little suppression. Consider “547867 (antisense e[5mC]*e[5mC]*kT*dT*dA*dG*dA*d[5mC]*dA*d[5mC]*dA*dT*dT*kA*kA*eA) [compound 547867]”, for which the “% inhibition” value is 34% under setting [1] and 53% under setting [2].

As to “547868 (antisense eA*e[5mC]*k[5mC]*dT*dT*dA*dG*dA*d[5mC]*dA*d[5mC]*dA*dT*kT*kA*eA) [compound 547868]”, the “% inhibition” value under setting [1] is given as 47% and the “% inhibition” value under setting [2] is 71%.

For the substance “547869 (antisense eA*eA*k[5mC]*d[5mC]*dT*dT*dA*dG*dA*d[5mC]*dA*d[5mC]*dA*kT*kT*eA) [compound 547869]”, the “% inhibition” value amounted to 45% under setting [1] and 77% under setting [2].

On to “547871 (antisense eG*e[5mC]*kT*dA*dA*d[5mC]*d[5mC]*dT*dT*dA*dG*dA*d[5mC]*kA*k[5mC]*eA) [compound 547871]”, for which the “% inhibition” value by setting is: under setting [1], 96%; under setting [2], 77%.

“547872 (antisense eT*eG*k[5mC]*dT*dA*dA*d[5mC]*d[5mC]*dT*dT*dA*dG*dA*k[5mC]*kA*e[5mC]) [compound 547872]”: the “% inhibition” value by setting is: under setting [1], 85%; under setting [2], 73%.

As to “547873 (antisense e[5mC]*eT*kG*d[5mC]*dT*dA*dA*d[5mC]*d[5mC]*dT*dT*dA*dG*kA*k[5mC]*eA) [compound 547873]”, the “% inhibition” value was 77% under setting [1] and 82% under setting [2].

As for “547874 (antisense eA*e[5mC]*kT*dG*d[5mC]*dT*dA*dA*d[5mC]*d[5mC]*dT*dT*dA*kG*kA*e[5mC]) [compound 547874]”, the “% inhibition” value under setting [1] is recorded as 70% and the “% inhibition” value under setting [2] worked out at 60%.

In the case of “547875 (antisense e[5mC]*eA*k[5mC]*dT*dG*d[5mC]*dT*dA*dA*d[5mC]*d[5mC]*dT*dT*kA*kG*eA) [compound 547875]”, the “% inhibition” value under setting [1] is listed as 73% and the “% inhibition” value under setting [2] is on record as 57%.

Take “547876 (antisense eA*e[5mC]*kA*d[5mC]*dT*dG*d[5mC]*dT*dA*dA*d[5mC]*d[5mC]*dT*kT*kA*eG) [compound 547876]”: the “% inhibition” value is, setting by setting: under setting [1], 78%; under setting [2], 59%.

Consider “547878 (antisense e[5mC]*eA*kA*d[5mC]*dA*d[5mC]*dT*dG*d[5mC]*dT*dA*dA*d[5mC]*k[5mC]*kT*eT) [compound 547878]”, for which the “% inhibition” value under setting [2] was determined as 62%.

In the case of “547879 (antisense eT*e[5mC]*kA*dA*d[5mC]*dA*d[5mC]*dT*dG*d[5mC]*dT*dA*dA*k[5mC]*k[5mC]*eT) [compound 547879]”, the “% inhibition” value runs as follows: under setting [1], 69%; under setting [2], 65%.

As to “547880 (eT*eT*k[5mC]*dA*dA*d[5mC]*dA*d[5mC]*dT*dG*d[5mC]*dT*dA*kA*k[5mC]*e[5mC]; antisense) [compound 547880]”, the “% inhibition” value is, setting by setting: under setting [1], 69%; under setting [2], 59%.

For the substance “547881 (eA*eT*kT*d[5mC]*dT*dT*d[5mC]*dA*dA*d[5mC]*dA*d[5mC]*dT*kG*k[5mC]*eT; antisense) [compound 547881]”, the “% inhibition” value is, setting by setting: under setting [1], 0%; under setting [2], 50%.

Turning to “547882 (e[5mC]*eT*kG*dG*d[5mC]*dA*dG*d[5mC]*dG*dA*dA*dT*dG*kT*kT*eA; antisense) [compound 547882]”, the “% inhibition” value is listed as 91% under setting [1] and 96% under setting [2].

For the substance “547883 (eA*e[5mC]*kT*dG*dG*d[5mC]*dA*dG*d[5mC]*dG*dA*dA*dT*kG*kT*eT; antisense) [compound 547883]”, the “% inhibition” value is, setting by setting: under setting [1], 99%; under setting [2], 0%.

As for “547884 (e[5mC]*eG*kT*dG*dG*d[5mC]*dA*dT*dA*dT*dG*dA*dA*kA*kA*eA; antisense) [compound 547884]”, the “% inhibition” value is 87% under setting [1] and 49% under setting [2].

For “547885 (e[5mC]*eT*k[5mC]*dT*dG*d[5mC]*d[5mC]*dT*dT*dG*dT*dG*dA*kA*kA*eT; antisense) [compound 547885]”, the “% inhibition” value turned out to be 45% under setting [1] and 57% under setting [2].
